{
  "source": "patent US9682928B2",
  "about": "(NeuroPro Therapeutics, Inc., priority 2009, dated 2017)",
  "key": {"[1]": {"biological_target": "T1, α4β3γ2 GABAA receptor isoform (Homo sapiens, UniProt P18507+P28472+P48169)", "T1 construct": "expressed in transfected cells; host or cells: HEK-293T, transient transfection", "T1 sequence (P48169 36-554)": "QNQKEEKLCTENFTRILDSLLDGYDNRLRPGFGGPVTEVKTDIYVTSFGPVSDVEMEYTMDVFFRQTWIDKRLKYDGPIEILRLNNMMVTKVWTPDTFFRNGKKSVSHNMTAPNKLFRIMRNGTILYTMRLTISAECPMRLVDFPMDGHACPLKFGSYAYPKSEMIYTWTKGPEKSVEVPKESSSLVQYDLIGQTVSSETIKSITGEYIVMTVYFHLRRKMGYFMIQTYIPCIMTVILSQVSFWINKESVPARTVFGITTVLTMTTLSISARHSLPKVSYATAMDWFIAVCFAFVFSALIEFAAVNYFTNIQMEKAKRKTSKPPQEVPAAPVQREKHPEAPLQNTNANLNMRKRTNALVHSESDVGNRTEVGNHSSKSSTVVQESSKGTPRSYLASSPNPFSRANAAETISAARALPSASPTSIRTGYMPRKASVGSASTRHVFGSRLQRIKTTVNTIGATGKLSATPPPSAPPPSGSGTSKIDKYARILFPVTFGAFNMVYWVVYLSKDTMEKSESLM", "T1 sequence (P28472 26-473)": "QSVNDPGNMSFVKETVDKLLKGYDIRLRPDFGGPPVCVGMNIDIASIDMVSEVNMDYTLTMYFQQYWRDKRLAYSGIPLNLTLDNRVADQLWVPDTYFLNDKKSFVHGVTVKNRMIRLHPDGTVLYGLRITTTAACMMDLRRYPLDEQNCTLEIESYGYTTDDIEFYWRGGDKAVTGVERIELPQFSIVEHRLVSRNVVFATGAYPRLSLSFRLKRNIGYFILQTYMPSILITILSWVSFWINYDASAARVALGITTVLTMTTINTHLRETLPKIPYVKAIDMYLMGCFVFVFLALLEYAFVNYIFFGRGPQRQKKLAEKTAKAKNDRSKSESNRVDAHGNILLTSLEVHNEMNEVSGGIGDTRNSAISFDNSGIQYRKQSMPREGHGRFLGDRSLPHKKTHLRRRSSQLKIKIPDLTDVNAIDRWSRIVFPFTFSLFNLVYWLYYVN", "T1 sequence (P18507 40-475)": "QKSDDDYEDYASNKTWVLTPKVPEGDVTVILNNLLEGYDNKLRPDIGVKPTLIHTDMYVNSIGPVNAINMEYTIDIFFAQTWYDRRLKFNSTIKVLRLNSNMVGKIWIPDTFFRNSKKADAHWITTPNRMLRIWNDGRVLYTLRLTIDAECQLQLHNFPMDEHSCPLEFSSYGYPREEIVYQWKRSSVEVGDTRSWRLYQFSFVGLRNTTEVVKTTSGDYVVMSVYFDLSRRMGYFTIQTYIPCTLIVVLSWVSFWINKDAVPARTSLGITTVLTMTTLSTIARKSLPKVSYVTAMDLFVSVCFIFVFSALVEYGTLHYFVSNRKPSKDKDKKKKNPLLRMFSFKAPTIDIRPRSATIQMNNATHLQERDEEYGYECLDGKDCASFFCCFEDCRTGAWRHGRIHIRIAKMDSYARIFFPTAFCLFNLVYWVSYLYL", "test": "Whole-cell patch clamp, transfected HEK-293T cells", "format": "cell-based, rat or human", "procedure": "The addition of GABA to […] activates the recombinant expressed GABAA receptors, creating an ion movement through the ion channel in the GABAA receptor. The electrical current generated by the movement of chloride ions into the cells can be quantified.\nHEK-293T cells were transiently transfected with rat or human GABAA receptor subunits. Whole-cell patch clamp recording was performed at −50 mV unless otherwise indicated. Test compounds was diluted from a freshly made stock in DMSO, GABA was prepared from a frozen stock. For each experiment GABA or GABA+a test compound was applied for 5 seconds, and the electrical current generated by the movement of chloride ions into the cells was measured and recorded as a trace of current versus time.\nCompounds described herein (e.g., NTP-2014) were tested at high and low GABA concentrations against multiple GABAA receptor isoforms (e.g., α1β3γ2, α2β3 γ2, α3β3γ2, α3β3γ2, α4β3γ2, α5β3γ2, α6β3γ2). […] NTP-2014 inhibits the currents in the parasynaptic α4 GABAA receptor isoform in GABAergic interneurons. […]"}, "Sprague-Dawley rats": {"test_system": "Sprague-Dawley rats", "test": "Kainic acid induced seizures in rats", "format": "in vivo, rat", "set-up": "key to Seizures Severity Mean ± SD (grade 0 to IV): seizure grade 0 = no response to IV = status epilepticus", "settings": "for change in vivo at 20 µmol/kg / change in vivo at 100 mg/kg: Rattus norvegicus, 2 h; for change in vivo at 100 mg/kg: ip; for Reduction in seizure score / severity: bumetanide 100 mg/kg i.p. (274 umoles/kg); for Reduction in seizure severity / seizure score / Reduction in seizures / seizure activity: kainic acid 15 mg/kg, rat, 20 μmoles/kg (bumetanide 7.3 mg/kg i.p.)", "procedure": "Formulation of kainic acid was performed by NTS as a stock solution by reconstituting kainic acid with (100%) saline that was stored at 4° C. Vehicle control received saline solution. […] The research investigators were blinded to the treatment groups.\nSolutions were prepared fresh daily just prior to use; dosing of all 10 rats with any given compound occurred on a single day after preparing the dosing solution. […] Unused remaining dosing solutions were stored frozen.\nAnimals were maintained in a temperature- and light-controlled environment in accord with the principles and procedures of the National Institutes of Health Guidelines for Care and Use of Laboratory Animals. Seizures were induced in adult, male Sprague-Dawley rats (260-300 g) by injection of KA (15 mg/kg, i.p.). In addition, animals were injected with test compounds following kainic acid to determine the effects on protection from epilepsy. Animals were monitored behaviorally for seizures for 2 hours after injection.\nSeizure activity was initially characterized as either yes (1) or no (0) within a 2 hour period following injection of KA. A seizure severity grade was assigned based on the maximal response achieved on a scale from 0 to IV as follows: 0, no response; I, single limb clonus and scratching; II, multiple limb clonus and staggering gait; […], limb clonus, tonic extension of limbs and falling; IV, continuous grade III seizures for longer than 30 min (status epilepticus).\nThe results were expressed as the mean±standard deviation (SD). The significance of difference in the epileptic data was analyzed using a one-way analysis of variance (ANOVA) followed by Fisher's post hoc test. Repeated-measures ANOVA were computed on the monitoring data and the significance of the difference among groups were evaluated by Fisher's post hoc test.\nAll groups were subjected to kainic acid.\nThe induction of seizures in rats with kainic acid was determined as either yes seizures (1) or no seizures (0)."}, "Male CD-1 mice": {"test_system": "Male CD-1 mice", "test": "Chung (SNL) neuropathic pain study in mice", "format": "in vivo, mouse", "settings": "for Other overt toxicity: in vivo, ip; for Reversal of tactile hypersensitivity: mice, i.p., SNL", "from_the_text": "Male CD-1 mice (25-35 g, Charles River) were used for all studies. Mice were housed in groups of five in Plexiglas chambers with food and water available ad libitum. All animals were maintained on a 12 hr light/dark cycle (lights on at 7:00 AM) in a temperature- and humidity-controlled animal colony. The health status of the animals used in this study was examined on arrival. Only animals in good health were acclimatized to laboratory conditions and used in the study. The acclimation period to the vivarium was a minimum of 7 days. All animal experiments were performed under an approved protocol in accordance with institutional guidelines and in accordance with the Guide for the Care and Use of Laboratory Animals as adopted and promulgated by the National Institutes of Health.\nNTP has provided adequate amounts of NTP-2014 and NTP-2026 along with detailed instructions for preparing injection solutions. Gabapentin (Gallipot, St. Paul, Minn.) was dissolved in physiological saline. Injections were made using a 1-mL syringe with a 30-gauge needle at a volume of 10 ml/kg body weight. Animal body weights were measured prior to surgery and then on the morning of Day 7 (post-SNL testing). For i.p. drug administration, each mouse was firmly grasped by the nape of the neck and the tail was tucked between the last two fingers and palm of the technician's hand. The back of the mouse iwasarched slightly backwards exposing the abdominal region. The needle was inserted through the skin and abdominal musculature into the peritoneal cavity just off of the midline. Mice are immediately returned to the testing cage until behavioral testing.\nNTP2026 (56, 100 and 180 mg/kg, i.p.); NTP 2014 (32, 56 and 100 mg/kg, i.p.); Gabapentin (100 mg/kg, i.p.); Vehicle Control (10% TPGS in benzoate buffer, i.p.).\nSNL surgeries were performed based on the procedures described for rats (Kim and Chung, 1992) and modified for mice (Wang et al., 2001). Anesthesia was maintained with 0.5% halothane in O2 and body temperature was maintained using a heated water blanket. After surgical preparation of the mice, a 1-cm paraspinal incision was made at the level L4-S2. The L5 and L6 spinal nerves were exposed and tightly ligated using a 4-0 silk suture. The ligation was made distal to the dorsal root ganglion but before the fibers joined the sciatic nerve. The incisions were then closed, and animals are allowed to recover. […] Mechanical thresholds were determined by measuring the paw withdrawal threshold to probing with a series of calibrated von Frey filaments as described below.\nNon-noxious sensory thresholds of the mice were determined by paw withdrawal […] to probing with a series of calibrated (0.02-2.34 gm on a logarithmic scale) von Frey filaments (“up and down” method) according to Chaplan et al. (1994) and analyzed using a Dixon (1980) nonparametric test. Results are expressed as the mean withdrawal thresholds. Baseline latencies/thresholds were determined prior to surgery, on the morning of Day 7, and then between 20-60 minutes post dosing with the test drugs. The post-drug time corresponds to the time of maximal activity for these compounds in the tail-flick assay."}, "[2]": {"test": "Solubility in dosing vehicle (0.2% HPMC in physiological saline)", "format": "physicochemical", "settings": "NTP-2024: 180 mg/kg or 18 mg/ml; NTP-2026: 100 mg/kg or 10 mg/ml"}, "[3]": {"settings": "KA 15 mg/kg i.p., 20 μmoles/kg IP"}, "[4]": {"settings": "KA 15 mg/kg i.p., 20 μmoles/kg IP, 2 hours"}, "[5]": {"settings": "group 11, bumetanide 100 mg/kg (274 umoles/kg)"}, "[6]": {"settings": "20 μmoles/kg IP, vs DMSO control"}},
  "note": "“Also recorded” adds a separate entry of the source. Where two headings read alike, the source gives them in different places.",
  "data": [
    {"molecule": "CCCCNc1cc(C(=O)O)cc(S(N)(=O)=O)c1Oc1ccccc1", "note": "[Bumetanide, reference compound]", "values": [
      {"measurement": "Effect on α4β3γ2 GABAA receptor isoform", "setting": "[1]; up to a concentration of 100 μM, 100 μM GABA", "value": "no effect; also recorded: no-effect"},
      {"measurement": "Seizures Severity Mean ± SD (grade 0 to IV)", "setting": "Sprague-Dawley rats; [3]", "value": "0.7000 ± 0.8233"},
      {"measurement": "Seizures Mean ± SD (1 = yes, 0 = no)", "setting": "Sprague-Dawley rats; [4]", "value": "0.5000 ± 0.5270"},
      {"measurement": "change in vivo at 20 µmol/kg", "setting": "Sprague-Dawley rats; 20 μmoles/kg IP, vs DMSO control, read-out: Percent reduction in Seizures", "value": -44.4, "unit": "%"},
      {"measurement": "change in vivo at 20 µmol/kg", "setting": "Sprague-Dawley rats; 20 μmoles/kg IP, vs DMSO control, read-out: Percent reduction in Seizures Severity", "value": -70.8, "unit": "%"},
      {"measurement": "change in vivo at 100 mg/kg", "setting": "Sprague-Dawley rats; read-out: Percent reduction in Seizures", "value": -88.9, "unit": "%"},
      {"measurement": "change in vivo at 100 mg/kg", "setting": "Sprague-Dawley rats; read-out: Percent reduction in Seizures Severity", "value": -95.8, "unit": "%"},
      {"measurement": "Reduction in seizure score / severity", "setting": "Sprague-Dawley rats", "value": "seizures (S); 96%"},
      {"measurement": "Reduction in seizure score / severity", "setting": "Sprague-Dawley rats; listed as bumetanide", "value": 95.8, "unit": "%"},
      {"measurement": "Reduction in seizures", "setting": "Sprague-Dawley rats; bumetanide 100 mg/kg i.p., listed as bumetanide", "value": 88.9, "unit": "%"},
      {"measurement": "Seizures Mean ± SD (1 = yes, 0 = no)", "setting": "Sprague-Dawley rats; [5]", "value": "0.1000 ± 0.3162"},
      {"measurement": "Seizures Severity Mean ± SD (grade 0 to IV)", "setting": "Sprague-Dawley rats; [5]", "value": "0.1000 ± 0.3162"},
      {"measurement": "Reduction in seizure severity / seizure score", "setting": "Sprague-Dawley rats", "value": "seizures (NS); 71%"},
      {"measurement": "Reduction in seizures / seizure activity", "setting": "Sprague-Dawley rats", "value": 44, "unit": "% reduction in"},
      {"measurement": "Reduction in seizure severity / seizure score", "setting": "Sprague-Dawley rats; listed as bumetanide", "value": 70.8, "unit": "%"}
    ]},
    {"molecule": "CCCCN(CCCC)c1cc(C(=O)O)cc(S(N)(=O)=O)c1Oc1ccccc1", "note": "[NTP-2014, 3-Aminosulfonyl-5-N,N-dibutylamino-4-phenoxybenzoic acid]", "values": [
      {"measurement": "IC50", "setting": "[1]; 100 μM GABA (FIG. 42), read-out: IC50, inhibition of α4β3γ2 GABAA receptor isoform", "value": 16, "unit": "µM"},
      {"measurement": "Effect on currents, α4 GABAA receptor isoform", "setting": "[1]; 1, 10, 100 μM GABA", "value": "inhibiting currents; also recorded: inhibited by NTP-2014 at higher GABA concentrations, but unaffected at lower GABA concentrations; also recorded: inhibition of currents"},
      {"measurement": "EC50", "setting": "[1]; FIG. 41C, read-out: EC50 in α4 containing GABAA receptor isoforms", "value": 20.2, "unit": "µM"},
      {"measurement": "IC50", "setting": "[1]; read-out: IC50, receptors containing the α4 subunit", "value": "10 to 30", "unit": "µM"},
      {"measurement": "Other overt toxicity", "setting": "Male CD-1 mice; male, CD-1, mouse", "value": "high dose group (180 mg/kg). No other"},
      {"measurement": "Reversal of tactile hypersensitivity", "setting": "Male CD-1 mice", "value": "dose-dependent reversal of tactile hypersensitivity; also recorded: effective analgesic effects; also recorded: Dose-dependent, very significant"},
      {"measurement": "Other overt toxicity", "setting": "Male CD-1 mice; mouse", "value": "No other overt toxicity"}
    ]},
    {"molecule": "CCCCNc1cc(C(=O)NN2CCOCC2)cc(S(N)(=O)=O)c1Oc1ccccc1", "note": "[NTP-2024, N-Morpholinyl 3-Aminosulfonyl-5-N-butylamino-4-phenoxybenzamide]", "values": [
      {"measurement": "Solubility issues at the highest dose tested", "setting": "[2]", "value": "Mild solubility issues"},
      {"measurement": "Percent reduction in Seizures", "setting": "Sprague-Dawley rats; [6]", "value": "−88.9", "unit": "%"},
      {"measurement": "Percent reduction in Seizures Severity", "setting": "Sprague-Dawley rats; [6]", "value": "−95.8", "unit": "%"},
      {"measurement": "Seizures Severity Mean ± SD (grade 0 to IV)", "setting": "Sprague-Dawley rats; [3]", "value": "0.1000 ± 0.3162"},
      {"measurement": "Seizures Mean ± SD (1 = yes, 0 = no)", "setting": "Sprague-Dawley rats; [4]", "value": "0.1000 ± 0.3162"},
      {"measurement": "Reduction in seizure severity / seizure score", "setting": "Sprague-Dawley rats", "value": 96, "unit": "% reduction in"},
      {"measurement": "Reduction in seizures / seizure activity", "setting": "Sprague-Dawley rats", "value": 89, "unit": "% reduction in"}
    ]},
    {"molecule": "CCCCNc1cc(C(=O)N(C)CCCN(C)C)cc(S(N)(=O)=O)c1Oc1ccccc1", "note": "[NTP-2026, N-(3-(Dimethylamino)propyl)-N-methyl 3-Aminosulfonyl-5-N-butylamino-4-phenoxybenzamide]", "values": [
      {"measurement": "Solubility issues at the highest dose tested", "setting": "[2]", "value": "Significant solubility issues"},
      {"measurement": "Reversal of tactile hypersensitivity", "setting": "Male CD-1 mice", "value": "dose-dependent reversal of tactile hypersensitivity; also recorded: Dose-dependent, significant reversal of"}
    ]}
  ]
}
